Reference: publication PMC5008840, “α-Mangostin Extraction from the Native Mangosteen (Garcinia mangostana L.) and the Binding Mechanisms of α-Mangostin to HSA or TRF” (PLoS ONE, 2016)

Key:
[1] = target: T1, human serum albumin (HSA) (Homo sapiens, UniProt P02768); assay: intrinsic fluorescence quenching titration; assay type: binding; conditions: 298 K; 0.1 M Tris-HCl pH 7.3, 0.1 M NaCl; 10 μM protein; excitation 282 nm; n = 1.15; double-log
T1 construct: gene ALB; mature protein, 585 residues, 17 disulfide bonds, about 67 kD
Excerpt: intrinsic fluorescence quenching titration on human serum albumin (HSA)

human transferrin (TRF) = target: T2, human transferrin (TRF) (Homo sapiens, UniProt P02787); assay: intrinsic fluorescence quenching titration; assay type: binding; conditions: 298 K; 0.1 M Tris-HCl pH 7.3, 0.1 M NaCl; 10 μM protein; excitation 282 nm; n = 1.09; double-log
T2 construct: gene TF; mature glycoprotein, 679 residues, 19 disulfide bonds, about 77 kD
Excerpt: intrinsic fluorescence quenching titration on human transferrin (TRF)

T1 sequence (P02768 25-609): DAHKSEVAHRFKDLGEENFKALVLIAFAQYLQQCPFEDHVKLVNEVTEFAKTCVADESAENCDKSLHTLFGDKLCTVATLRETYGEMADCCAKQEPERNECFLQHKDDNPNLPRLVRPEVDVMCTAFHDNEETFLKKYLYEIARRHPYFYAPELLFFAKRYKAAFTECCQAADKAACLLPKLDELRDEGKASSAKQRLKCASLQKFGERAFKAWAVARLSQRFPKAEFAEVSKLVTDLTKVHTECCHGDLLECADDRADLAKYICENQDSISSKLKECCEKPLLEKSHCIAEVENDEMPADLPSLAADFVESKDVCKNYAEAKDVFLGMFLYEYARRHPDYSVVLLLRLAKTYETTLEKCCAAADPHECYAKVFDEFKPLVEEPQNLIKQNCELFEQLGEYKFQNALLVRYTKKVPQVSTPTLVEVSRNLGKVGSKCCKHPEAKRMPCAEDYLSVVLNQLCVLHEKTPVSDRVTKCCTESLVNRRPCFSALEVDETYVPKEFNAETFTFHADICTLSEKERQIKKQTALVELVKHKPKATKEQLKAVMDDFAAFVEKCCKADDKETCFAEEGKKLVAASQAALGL
T2 sequence (P02787 20-698): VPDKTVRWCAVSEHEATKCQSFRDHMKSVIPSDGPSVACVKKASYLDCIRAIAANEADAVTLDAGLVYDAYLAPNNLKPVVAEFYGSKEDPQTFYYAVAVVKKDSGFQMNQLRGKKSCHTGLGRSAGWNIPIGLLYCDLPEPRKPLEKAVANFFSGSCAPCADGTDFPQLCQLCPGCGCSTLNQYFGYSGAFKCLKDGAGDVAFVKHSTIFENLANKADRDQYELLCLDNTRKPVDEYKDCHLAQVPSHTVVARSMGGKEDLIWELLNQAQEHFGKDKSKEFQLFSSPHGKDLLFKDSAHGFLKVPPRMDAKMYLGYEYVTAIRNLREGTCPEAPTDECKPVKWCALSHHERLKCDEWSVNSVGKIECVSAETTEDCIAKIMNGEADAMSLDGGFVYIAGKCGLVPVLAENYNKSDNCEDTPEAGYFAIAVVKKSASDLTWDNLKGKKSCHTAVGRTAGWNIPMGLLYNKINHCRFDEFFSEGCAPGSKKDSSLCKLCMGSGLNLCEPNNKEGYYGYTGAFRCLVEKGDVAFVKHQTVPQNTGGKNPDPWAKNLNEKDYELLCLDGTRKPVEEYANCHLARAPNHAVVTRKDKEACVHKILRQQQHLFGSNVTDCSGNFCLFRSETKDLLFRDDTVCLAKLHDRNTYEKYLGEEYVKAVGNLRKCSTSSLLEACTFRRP

For `COc1c(O)cc2oc3cc(O)c(CC=C(C)C)c(O)c3c(=O)c2c1CC=C(C)C` [α-mangostin, 1,3,6-trihydroxy-7-methoxy-2,8-bis(3-methyl-2-butenyl)-9H-xanthen-9-one], the “K” value [1] was 648320 L/mol and the “K” value (human transferrin (TRF)) was 146520 L/mol.
